Reference: US20130064794A1, “Substituted Carbonyloxymethylphosphoramidate Compounds and Pharmaceutical Compositions for the Treatment of Viral Infections” (IDENIX PHARMACEUTICALS, INC., priority 2011, published 2013)

Experiments:
[1] = Stability in human intestinal microsomes (HIM); format: in vitro ADME; details: 10 μM, 1.0 mg/mL protein, NADPH, 60 min
Method: Stability of Compound 1 and its diastereomer were determined in subcellular fractions (microsomes and S9) of human liver and intestine in duplicate for each matrix. Pooled liver and intestinal microsomal, intestinal and liver S9 proteins (1.0 mg/mL), suspended in incubation buffer (100 mM potassium phosphate, pH 7.4, 5 mM MgCl2, and 0.1 mM EDTA), were preincubated for 5 min at 37° C. with 10 μM of a test compound from a 10 mM stock solution in DMSO (final DMSO concentration was 0.1%); the reaction was initiated by the addition of NADPH (3 mM final concentration). At specific times (0 and 60 min), 0.1 mL samples were taken and the reaction terminated by the addition of 4 volumes of stop solution (acetonitrile with 500 ng/mL carbutamide as an internal standard). The samples were vortexed for 30 sec and then centrifuged at 16,000 g for 10 min. 100 μL of supernatants were transferred to 96 deep-well plates preloaded with 100 μL distilled water and analyzed after mixing by LC-MS/MS. The MS peak area ratio of the test compound versus the internal standard was calculated and percent unchanged test compound over 60 minutes was calculated using this ratio.

[2] = Stability in simulated intestinal fluid (SIF); format: in vitro ADME; details: 100 μM, 2 hours at 37° C.
Method: Simulated gastric and intestinal fluids containing pepsin and pancreatin respectively were prepared according to the U.S. Pharmacopoeia USP291 procedure (www.pharmacopeia.cn/v29240/usp29nf24s0_ris1s126.html). Test compound (final concentration 100 μM) was incubated in duplicate in the appropriate fluid for 2 hours at 37° C. The samples were quenched with 200 μl cold acetonitrile, vortexed for 30 seconds and then centrifuged at 16,100 g for 10 min. The supernatants were analyzed by HPLC on a C-18 column with UV detection at 252 nm. The time 0 samples were prepared by adding SGF or SIF fluid to the quenching solvent followed by the test compound. Stability of the compound was determined by peak area the test compound after incubation and calculated as percent of the peak area observed at time zero.

[3] = Plasma and liver pharmacokinetics following a single oral dose in CD-1 mice; format: in vivo; details: single oral dose in PEG 200, value at 1 μmol/kg; for Ms 2′-F, 2′-MeGTP AUC: mouse liver; for Ms Plasma 2′-F, 2′-MeG AUC / Ms Plasma 2′-F, 2′-MeG Cmax: mouse plasma
Method: A single oral dose of Compound 1 at 25 mg/kg in PEG 200 (dose volume 5 mL/kg) was administered to nine CD-1 male mice. Five untreated animals were used for the collection of control plasma and liver. Terminal plasma and liver samples were collected from three animals per time point at 4, 12 and 24 hours post dose. Liver specimens were collected from all animals immediately after the incision. Freezing forceps stored in liquid nitrogen were used to freeze the liver before excision.
Plasma samples were analyzed for 2′-methylguanosine (2′-MeG) by LC-MS/MS. The internal standard (1S) was 2′-MeG-D3. For protein precipitation and extraction, each plasma sample (50 μL) was treated with 500 μL of 0.2% formic acid in acetonitrile and 20 μL of the internal standard working solution. After vortexing and centrifugation, 500 μL of the sample extracts were transferred to a new plate, dried under N2 at ˜28° C. and reconstituted with 75 μL of 0.2% FA in water. The extracts were chromatographed on an Aquasil C18 column using a gradient system of 0.2% formic acid in water and acetonitrile. The analytes were detected and quantified by tandem mass spectrometry in positive ion mode on an MDS Sciex API5000 equipped with a Turbo Ionspray® interface. The calibration range was 0.500 (LLOQ) to 200 ng/mL in mouse plasma. The corresponding range for molar units is 1.68 to 673 pmol/mL.
Liver samples were analyzed for the active species 2′-methylguanosine triphosphate (2′-MeGTP) by LC-MS/MS. 2′-F, 2′-MeGTP levels were assayed by homogenizing (on ice) a known weight of mouse liver with 4× volume of 0.95 M trichloroacetic acid (TCA). Internal standard solution was added to the homogenate followed by neutralization with 20% ammonium hydroxide solution and addition of 500 μL 1% formic acid. The tissue samples were extracted by weak anion exchange solid phase extraction (SPE). Post extraction, the eluates were evaporated under nitrogen, followed by reconstitution before injection onto the LC-MS/MS system. The samples were chromatographed on a Luna NH2 column using a gradient system of ammonium acetate (1 mM to 20 mM and pH 8.0 to pH 10.0) in water and acetonitrile (70:30). The analyte was detected and quantified by tandem mass spectrometry in positive ion mode on an API4000 equipped with a Turbo Ionspray® interface. The calibration range was 10 to 10000 pmol/mL in mouse liver homogenate (50 to 50000 pmol/g of mouse liver).

fresh human hepatocytes = test: Release of active metabolite in fresh human hepatocytes; format: in vitro ADME; details: intracellular triphosphate, 10 μM test compound
Method: Plates of fresh human and mouse hepatocytes were obtained on ice. The medium was removed and replaced with hepatocyte culture medium (William's E supplemented with penicillin-streptomycin, 1% L-glutamine, 1% insulin-transferrin-selenium and 0.1 μM Dexamethasone (Invitrogen) or with Invitro GRO HI medium complemented with Torpedo antibiotics (Celsis)). Cells were left overnight in an incubator at 37° C. to acclimatize to culture and the medium.
Hepatocyte incubations were conducted at a final volume of 0.5 mL hepatocyte culture medium/well (0.8 million cells/well for human and 0.5 million cells/well for mouse; 12 well plate no overlay, collagen coat). Culture medium from overnight incubation of cells was removed and replaced with fresh medium, pre-warmed to 37° C., containing 10 μM of the test compound from a stock solution in DMSO (final DMSO concentration was 0.1%). At each specific time point, incubation medium was removed and cell monolayers were carefully washed two times with ice-cold PBS. Following the last wash, all PBS was carefully removed and 1.0 mL of extraction solution (ice-cold 70% methanol/30% water) added. Cells were scraped off and suspended in the extraction solution, transferred to 2 mL polypropylene microfuge tubes and intracellular contents extracted overnight at −20° C.
After the overnight treatment the cellular extracts were prepared by centrifugation at 16,000×g for 10 min to remove cellular debris. The remaining sample was then dried using a refrigerated centrivap concentrator. Dry extracts were reconstituted in 1000 μL of HPLC-grade water and centrifuged at 16,000×g for 10 min. Aliquots (100 μL each) of the supernatant were transferred into a 96 well plate and 2′-C-methyl-adenosine 5′-triphosphate, trisodium salt (4 ng/mL final concentration) was added as the internal standard (1S) for LC-MS/MS analysis.
The incubation time points were 6, 24 and 48 hours for human hepatocytes and 1, 4, 8, 12 and 24 hours for mouse hepatocytes.

| Structure (SMILES) | Percent Remaining, HIM (1 hr) [1] [%] | Percent Remaining, SIF [2] [%] | Ms 2′-F, 2′-MeGTP AUC [3] [pmol · hr/g at 1 μmol/kg] | Ms Plasma 2′-F, 2′-MeG AUC [3] [pmol · hr/mL at 1 μmol/kg] | Ms Plasma 2′-F, 2′-MeG Cmax [3] [pmol/mL at 1 μmol/kg] | FHH TP AUC (fresh human hepatocytes) [pmol.hr/mill cells] | FHH TP Cmax (fresh human hepatocytes) [pmol/mill cells] |
| --- | --- | --- | --- | --- | --- | --- | --- |
| CCOC(=O)OC(C)OP(=O)(N[C@@H](C)C(=O)OC(C)C)OC[C@H]1O[C@@H](n2cnc3c(OC)nc(N)nc32)[C@](C)(F)[C@@H]1O (single isomer, unassigned) [Compound 14] | 41 | 39 | 1900 | 150 | 14 | 4006 | 155 |
| CCOC(=O)OC(C)OP(=O)(N[C@@H](C)C(=O)OC(C)C)OC[C@H]1O[C@@H](n2cnc3c(OC)nc(N)nc32)[C@](C)(F)[C@@H]1O (single isomer, unassigned) [Compound 15] | 54 | 0 | 900 | 130 | 16 | 4453 | 139 |
